In brackets after ≈: the same amount, converted by molar mass.
Tests used:
[1] = test system: Mycobacterium tuberculosis; assay: Antimycobacterial activity against Mycobacterium tuberculosis H37Rv ATCC 27294 incubated for 5 days by alamar blue based colorimetric assay; format: functional; conditions: H37Rv ATCC 27294, 120 h
[2] = Cytotoxicity against monkey Vero cells assessed as cell viability at 50 ug/ml by WST-1 assay relative to control; format: cell-based; conditions: chlorocebus sabaeus, read-out: Activity
[3] = Cytotoxicity against monkey Vero cells assessed as cell viability at 100 ug/ml by WST-1 assay relative to control; format: cell-based; conditions: chlorocebus sabaeus, read-out: Activity

SMILES	MIC [1]	viability at 50 ug/ml [2]	viability at 100 ug/ml [3]
COC(=O)[C@@H]1COC(/C=C/c2ccc(F)cc2)=N1	50.1 µM (≈ 12.5 µg/mL)	91.6%	18.6%
COC(=O)c1coc(/C=C/c2ccc(C)cc2)n1	3.21 µM (≈ 0.781 µg/mL)	102%	100%
COC(=O)[C@H](CO)NC(=O)/C=C/c1ccc(C)cc1	> 380 µM	100%	101%
COC(=O)c1coc(/C=C/c2ccc(F)cc2)n1	12.6 µM (≈ 3.12 µg/mL)	102%	99%
COC(=O)[C@H](CO)NC(=O)/C=C/c1ccc(F)cc1	> 374 µM	–	–
COC(=O)[C@@H]1COC(/C=C/c2ccc(OC)cc2)=N1	23.9 µM (≈ 6.24 µg/mL)	94.8%	20.9%
COC(=O)[C@H](COC(=O)/C=C/c1ccccc1)NC(=O)/C=C/c1ccccc1	> 264 µM	16.8%	10.7%
COC(=O)[C@H](CO)NC(=O)/C=C/c1ccccc1	> 401 µM	97.1%	99.4%
COC(=O)[C@@H]1COC(/C=C/c2ccc(C)cc2)=N1	25.4 µM (≈ 6.23 µg/mL)	85.1%	17%
O=C(/C=C/c1ccc(F)cc1)O/C(=N/C1CCCCC1)NC1CCCCC1	> 268 µM	82.5%	85.5%
COC(=O)[C@H](CO)NC(=O)/C=C/c1ccc(OC)cc1	> 358 µM	100%	103%
COC(=O)[C@@H]1COC(/C=C/c2ccccc2)=N1	54.1 µM (≈ 12.5 µg/mL)	68.6%	12.4%
O=C(/C=C/c1ccccc1)O/C(=N/C1CCCCC1)NC1CCCCC1	> 282 µM	83.9%	83.8%
Cc1ccc(/C=C/C(=O)O/C(=N/C2CCCCC2)NC2CCCCC2)cc1	> 271 µM	79.3%	95.5%
COC(=O)[C@H](COC(=O)/C=C/c1ccc(F)cc1)NC(=O)/C=C/c1ccc(F)cc1	120 µM (≈ 50 µg/mL)	21.1%	8.65%
COC(=O)[C@H](COC(=O)/C=C/c1ccc(OC)cc1)NC(=O)/C=C/c1ccc(OC)cc1	114 µM (≈ 50 µg/mL)	39.1%	11.4%
COC(=O)c1coc(/C=C/c2ccc(OC)cc2)n1	24.1 µM (≈ 6.25 µg/mL)	99.6%	96.8%
COC(=O)[C@H](COC(=O)/C=C/c1ccc(C)cc1)NC(=O)/C=C/c1ccc(C)cc1	123 µM (≈ 50 µg/mL)	28.8%	18.7%
COC(=O)c1coc(/C=C/c2ccccc2)n1	54.5 µM (≈ 12.5 µg/mL)	99.6%	102%
CC[C@@H](CO)NCCN[C@@H](CC)CO [ETHAMBUTOL]	15.2 µM (≈ 3.11 µg/mL)	–	–
C[C@H]1COc2c(N3CCN(C)CC3)c(F)cc3c(=O)c(C(=O)O)cn1c23 [LEVOFLOXACIN]	0.54 µM (≈ 0.195 µg/mL)	–	–
CO[C@H]1/C=C/O[C@@]2(C)Oc3c(C)c(O)c4c(O)c(c(/C=N/N5CCN(C)CC5)c(O)c4c3C2=O)NC(=O)/C(C)=C\C=C\[C@H](C)[C@H](O)[C@@H](C)[C@@H](O)[C@@H](C)[C@H](OC(C)=O)[C@@H]1C [RIFAMPIN]	0.06 µM (≈ 0.0494 µg/mL)	–	–

Reference: ChEMBL document CHEMBL4627328, “Synthesis and in vitro evaluation of antimycobacterial and cytotoxic activity of new α,β-unsaturated amide, oxazoline and oxazole derivatives from l-serine” (Bioorg Med Chem Lett, 2020)
